For eleven compounds, IC50 results are on record in patent publication US8481750B2 (Boehringer Ingelheim International GmbH, priority 2009, dated 2013).

Molecules are shown by their SMILES.

LFA-1 binding to ICAM-1, sequence (P20701 26-1170): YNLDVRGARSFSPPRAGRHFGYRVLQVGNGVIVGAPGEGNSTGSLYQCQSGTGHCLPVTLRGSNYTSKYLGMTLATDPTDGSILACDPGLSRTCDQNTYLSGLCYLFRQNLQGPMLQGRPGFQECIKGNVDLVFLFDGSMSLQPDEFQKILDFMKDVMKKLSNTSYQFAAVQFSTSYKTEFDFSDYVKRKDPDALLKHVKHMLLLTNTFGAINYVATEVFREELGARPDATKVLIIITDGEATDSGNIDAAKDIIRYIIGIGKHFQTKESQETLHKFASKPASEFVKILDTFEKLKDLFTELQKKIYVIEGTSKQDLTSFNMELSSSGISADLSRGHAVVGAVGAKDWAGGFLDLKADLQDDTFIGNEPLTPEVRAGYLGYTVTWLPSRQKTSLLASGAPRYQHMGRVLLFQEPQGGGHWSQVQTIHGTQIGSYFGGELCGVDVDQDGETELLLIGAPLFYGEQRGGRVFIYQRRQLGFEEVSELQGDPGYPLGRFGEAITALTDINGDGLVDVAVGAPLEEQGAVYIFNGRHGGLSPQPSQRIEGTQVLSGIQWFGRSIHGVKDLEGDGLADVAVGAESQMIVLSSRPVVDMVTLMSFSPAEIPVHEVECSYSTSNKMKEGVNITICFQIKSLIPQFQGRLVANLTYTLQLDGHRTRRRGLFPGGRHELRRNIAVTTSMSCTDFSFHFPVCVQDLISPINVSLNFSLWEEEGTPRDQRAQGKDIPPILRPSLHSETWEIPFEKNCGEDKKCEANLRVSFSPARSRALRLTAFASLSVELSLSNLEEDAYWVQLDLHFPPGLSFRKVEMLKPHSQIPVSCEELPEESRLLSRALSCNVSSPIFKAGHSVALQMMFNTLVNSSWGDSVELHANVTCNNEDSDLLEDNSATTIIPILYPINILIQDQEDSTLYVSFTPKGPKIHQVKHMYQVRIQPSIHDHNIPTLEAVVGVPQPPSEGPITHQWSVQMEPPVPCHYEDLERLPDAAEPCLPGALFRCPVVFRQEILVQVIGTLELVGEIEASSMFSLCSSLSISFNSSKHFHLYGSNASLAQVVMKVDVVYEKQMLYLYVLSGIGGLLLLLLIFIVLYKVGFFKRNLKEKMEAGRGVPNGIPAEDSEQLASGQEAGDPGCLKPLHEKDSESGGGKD
LFA-1 binding to ICAM-1, sequence (P05107 23-769): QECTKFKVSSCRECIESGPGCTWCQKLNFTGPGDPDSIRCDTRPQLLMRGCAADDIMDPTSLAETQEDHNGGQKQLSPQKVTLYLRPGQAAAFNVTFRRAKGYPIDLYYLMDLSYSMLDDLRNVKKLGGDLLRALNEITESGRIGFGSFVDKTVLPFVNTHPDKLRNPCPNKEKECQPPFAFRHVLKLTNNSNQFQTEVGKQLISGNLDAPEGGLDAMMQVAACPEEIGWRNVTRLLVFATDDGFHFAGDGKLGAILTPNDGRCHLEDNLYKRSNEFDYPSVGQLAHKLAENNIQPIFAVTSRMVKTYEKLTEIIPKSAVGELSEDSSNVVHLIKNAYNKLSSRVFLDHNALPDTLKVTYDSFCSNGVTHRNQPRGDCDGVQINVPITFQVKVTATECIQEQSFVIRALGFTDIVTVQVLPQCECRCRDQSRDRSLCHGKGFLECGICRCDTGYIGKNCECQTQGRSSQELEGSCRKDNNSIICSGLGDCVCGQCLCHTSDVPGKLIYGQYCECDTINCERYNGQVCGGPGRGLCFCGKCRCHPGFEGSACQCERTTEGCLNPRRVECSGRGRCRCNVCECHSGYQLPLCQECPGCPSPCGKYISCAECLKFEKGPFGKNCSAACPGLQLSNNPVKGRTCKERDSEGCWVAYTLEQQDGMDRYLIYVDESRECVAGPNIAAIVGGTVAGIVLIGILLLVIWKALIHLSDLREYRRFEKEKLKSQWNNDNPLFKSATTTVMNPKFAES

This experiment concerns the target LFA-1 binding to ICAM-1 (Homo sapiens, UniProt P05107+P20701). Briefly: Inhibition of LFA-1 binding to ICAM-1 (LFA-1/Biotin-sICAM-1 AlphaScreen molecular assay). The conditions noted are these: highest compound concentration 1 μM in 1% DMSO, 37° C., 90 minutes. An outline of the steps:
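AlphaScreen binding of purified LFA-1 to biotinylated sICAM-1 in DPBS with Ca/Mg, 2 mM MgCl2, 0.1% BSA, pH 7.1; compound top concentration 1 μM in 1% DMSO, 90 min at 37 °C. Detection with TS2/4 anti-LFA-1 acceptor beads (10 μg/mL final) and streptavidin donor beads (15 μg/mL final), room temperature in the dark.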
(Alpha assays give light when donor and acceptor beads are brought close together.)
Take `C[C@@]1(Cc2ccc(C#N)cc2)C(=O)N(c2cc(Cl)cc(Cl)c2)c2ncc(C(=O)NC3(C(=O)NC4(c5cccc(C(=O)NCc6cccnc6)n5)CC4)CC3)n21` [compound 162]: the half-maximal inhibitory concentration (IC50) amounted to 2.3 nM. The figure for `C[C@@]1(Cc2ccc(C#N)cc2)C(=O)N(c2cc(Cl)cc(Cl)c2)c2ncc(C(=O)NC3(C(=O)NC4(c5ccc(C(=O)N6CCC[C@@H]6C(N)=O)cn5)CC4)CC3)n21` [compound 163] is 0.65 nM; for `C[C@@]1(Cc2ccc(C#N)cc2)C(=O)N(c2cc(Cl)c(F)c(Cl)c2)c2ncc(C(=O)NC3(C(=O)NC4(c5ccc(C(N)=O)cn5)CC4)CC3)n21` [compound 164] it is 0.82 nM. The figure for `C[C@H](NC(=O)c1cccc(C2(NC(=O)C3(NC(=O)c4cnc5n4[C@](C)(Cc4ccc(C#N)cc4)C(=O)N5c4cc(Cl)cc(Cl)c4)CC3)CC2)n1)c1ccccc1` [compound 165] is 0.3 nM; for `C[C@@H](NC(=O)c1ccnc(C2(NC(=O)C3(NC(=O)c4cnc5n4[C@](C)(Cc4ccc(C#N)cc4)C(=O)N5c4cc(Cl)cc(Cl)c4)CC3)CC2)c1)C(N)=O` [compound 166] it is 3 nM; for `CC(C)(NC(=O)c1cccc(C2(NC(=O)C3(NC(=O)c4cnc5n4[C@](C)(Cc4ccc(C#N)cc4)C(=O)N5c4cc(Cl)cc(Cl)c4)CC3)CC2)n1)c1ccccc1` [compound 167] it is 0.41 nM. The figure for `C[C@@]1(Cc2ccc(C#N)cc2)C(=O)N(c2cc(Cl)cc(Cl)c2)c2ncc(C(=O)NC3(C(=O)NC4(c5cc(C(=O)N6CC[C@@H](O)C6)ccn5)CC4)CC3)n21` [compound 168] is 3.4 nM. Take `C[C@@]1(Cc2ccc(C#N)cc2)C(=O)N(c2cc(Cl)cc(Cl)c2)c2ncc(C(=O)NC3(C(=O)NC4(c5ccc(C(=O)NCCc6ccncc6)cn5)CC4)CC3)n21` [compound 169]: the concentration for half-maximal inhibition (IC50) was found to be 2.5 nM. The figure for `C[C@@]1(Cc2ccc(C#N)cc2)C(=O)N(c2cc(Cl)cc(Cl)c2)c2ncc(C(=O)NC3(C(=O)NC4(c5cccc(C(=O)N6CCC(C(N)=O)CC6)n5)CC4)CC3)n21` [compound 170] is 0.28 nM; for `CC(=O)N1CCN(C(=O)c2ccc(C3(NC(=O)C4(NC(=O)c5cnc6n5[C@](C)(Cc5ccc(C#N)cc5)C(=O)N6c5cc(Cl)cc(Cl)c5)CC4)CC3)nc2)CC1` [compound 171] it is 1.3 nM. `C[C@@]1(Cc2ccc(C#N)cc2)C(=O)N(c2cc(Cl)cc(Cl)c2)c2ncc(C(=O)NC3(C(=O)NC4(c5cc(C(=O)NCC(N)=O)ccn5)CC4)CC3)n21` [compound 172] displayed an IC50 of 0.84 nM.

One may read the IC50 as the point on the concentration scale where inhibition reaches its midpoint. A lower IC50 goes with inhibition by little substance.
